pIC50: −log10 of the molar value.
Experiments:
[1] = molecular target: EIF2AK3 (PERK) catalytic domain (amino acids 536-1116) (Homo sapiens (Human), UniProt Q9NZJ5); experiment: PERK in vitro activity assay (isolated), TR-FRET kinase assay; details: isolated PERK enzyme, 1.5 μM ATP, GFP-eIF2a substrate; read-out: Biochemical IC50
Outline: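 Human PERK catalytic domain (aa 536-1116) with 100-200 nM GFP-eIF2a in 50 mM HEPES pH 7.5, 10 mM MgCl2, 1.0 mM EGTA, 0.01% Brij-35; enzyme-started reaction run 45 min at room temperature. Stopped with 10 mM EDTA, 2 nM Tb-anti-phospho-eIF2a added for 90 min; IC50 from TR-FRET ratio by 4-parameter logistic fit.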

[2] = molecular target: PERK (Homo sapiens (Human), UniProt Q9NZJ5); experiment: PERK cellular assay (TR-FRET, HEK293-EGFP-eIF2α cells, tunicamycin-induced ER stress); assay type: cell-based; details: tunicamycin 2 hours, read-out: Cellular IC50 (μM) (EIF2a)
Outline: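 After 2 h tunicamycin ([…]) stress following 30 min compound pretreatment at 37 °C, lysed HEK293-EGFP-eIF2α cells were read by TR-FRET. IC50 derived by 4-parameter logistic fitting of percent inhibition, DMSO-normalized, from 10-point 3-fold dilutions.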

EIF2AK3 (PERK) catalytic domain (amino acids 536-1116), sequence (Q9NZJ5 536-1116): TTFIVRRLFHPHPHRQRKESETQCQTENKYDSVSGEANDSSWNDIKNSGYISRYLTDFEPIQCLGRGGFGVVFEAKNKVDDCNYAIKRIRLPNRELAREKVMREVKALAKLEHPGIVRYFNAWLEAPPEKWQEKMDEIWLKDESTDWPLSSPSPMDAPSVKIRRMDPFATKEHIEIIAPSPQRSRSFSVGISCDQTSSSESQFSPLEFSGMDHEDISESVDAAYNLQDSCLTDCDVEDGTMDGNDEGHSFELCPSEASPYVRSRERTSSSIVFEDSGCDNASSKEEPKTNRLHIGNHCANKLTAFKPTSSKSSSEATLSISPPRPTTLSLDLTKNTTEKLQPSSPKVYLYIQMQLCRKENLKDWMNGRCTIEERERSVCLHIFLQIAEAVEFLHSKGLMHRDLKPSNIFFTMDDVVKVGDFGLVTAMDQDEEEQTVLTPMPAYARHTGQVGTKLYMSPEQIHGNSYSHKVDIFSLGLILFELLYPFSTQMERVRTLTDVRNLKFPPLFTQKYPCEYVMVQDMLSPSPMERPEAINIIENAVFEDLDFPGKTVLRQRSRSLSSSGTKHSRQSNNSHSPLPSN
PERK, sequence (Q9NZJ5 30-1116): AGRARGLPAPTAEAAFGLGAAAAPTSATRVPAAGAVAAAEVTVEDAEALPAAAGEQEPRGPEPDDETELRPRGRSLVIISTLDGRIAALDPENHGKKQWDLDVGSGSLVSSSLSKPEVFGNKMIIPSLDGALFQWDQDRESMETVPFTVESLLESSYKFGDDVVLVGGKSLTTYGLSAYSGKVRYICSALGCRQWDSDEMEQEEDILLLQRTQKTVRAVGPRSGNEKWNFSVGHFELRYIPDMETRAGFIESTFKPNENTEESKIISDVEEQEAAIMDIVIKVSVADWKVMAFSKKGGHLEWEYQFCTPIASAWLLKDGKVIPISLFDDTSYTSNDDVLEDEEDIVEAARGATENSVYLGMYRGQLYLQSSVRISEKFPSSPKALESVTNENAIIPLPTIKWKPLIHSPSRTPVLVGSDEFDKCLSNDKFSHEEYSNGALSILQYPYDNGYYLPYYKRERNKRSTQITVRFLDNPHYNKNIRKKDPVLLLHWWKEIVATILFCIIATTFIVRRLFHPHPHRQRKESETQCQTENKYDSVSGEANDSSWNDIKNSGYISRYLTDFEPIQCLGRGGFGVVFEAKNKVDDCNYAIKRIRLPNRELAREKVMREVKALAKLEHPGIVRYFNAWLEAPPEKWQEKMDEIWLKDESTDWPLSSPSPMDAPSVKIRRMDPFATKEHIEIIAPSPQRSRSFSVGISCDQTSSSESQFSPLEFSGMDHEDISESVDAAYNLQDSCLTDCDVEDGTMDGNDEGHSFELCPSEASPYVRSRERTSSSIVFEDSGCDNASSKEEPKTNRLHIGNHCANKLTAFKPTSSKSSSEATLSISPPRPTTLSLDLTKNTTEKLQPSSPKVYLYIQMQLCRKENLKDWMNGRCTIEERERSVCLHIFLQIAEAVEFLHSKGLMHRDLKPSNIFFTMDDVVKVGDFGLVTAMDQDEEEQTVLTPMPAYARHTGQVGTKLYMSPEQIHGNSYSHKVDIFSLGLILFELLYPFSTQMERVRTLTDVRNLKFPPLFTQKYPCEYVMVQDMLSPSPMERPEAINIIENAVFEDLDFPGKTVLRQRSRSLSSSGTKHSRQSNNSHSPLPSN

| SMILES | pIC50 [1] | IC50 [2] [µM] |
| --- | --- | --- |
| CC(C)NC(=O)c1cc(-c2ccc(NC(=O)C(O)c3cc(F)cc(F)c3)c(F)c2Cl)cnc1N (stereo not shown) [Example 124, 2-amino-5-(2-chloro-4-(2-(3,5-diflouorophenyl)-2-hydroxyacetamido)-3-fluorophenyl)-N-isopropylnicotinamide] | 7.30 to 7.59 | 0.051 to 0.1 |
| Cc1cc(NC(=O)C(O)c2cc(F)cc(F)c2)c(F)cc1-c1cnc(N)c(C(=O)NC(C)C)c1 (stereo not shown) [Example 125, 2-amino-5-(4-(2-(3,5-difluorophenyl)-2-hydroxyacetamido)-5-fluoro-2-methylphenyl)-N-isopropylnicotinamide] | 6.60 to 7.00 | 0.501 to 1 |
| Cc1cc(NC(=O)C(O)c2cc(F)cc(F)c2)c(F)cc1-c1cnc(N)c(C(=O)NC(C)C)c1 (stereo not shown) [Example 126, 2-amino-5-(4-(2-(3,5-difluorophenyl)-2-hydroxyacetamido)-5-fluoro-2-methylphenyl)-N-isopropylnicotinamide] | 7.60 to 9.00 | 0.101 to 0.25 |
| Cc1cc(NC(=O)C(O)c2cccc(C(F)(F)F)c2)ncc1-c1cnc(N)c(C(=O)NC(C)C)c1 (stereo not shown) [Example 127, 6-amino-6′-(2-hydroxy-2-(3-(trifluoromethyl)phenyl)acetamido)-N-isopropyl-4′-methyl-[3,3′-bipyridine]-5-carboxamide] | 6.30 to 6.60 | > 5 |
| Cc1cc(NC(=O)C(O)c2cc(F)cc(F)c2)ccc1-c1cnc(N)c(C(=O)NC(C)C)n1 (stereo not shown) [Example 133, 3-amino-6-(4-(2-(3,5-difluorophenyl)-2-hydroxyacetamido)-2-methylphenyl)-N-isopropylpyrazine-2 carboxamide] | 7.00 to 7.29 | 0.101 to 0.25 |
| CNC(=O)c1nc(-c2ccc(NC(=O)C(O)c3cc(F)cc(F)c3)cc2C)cnc1N (stereo not shown) [Example 135, 3-amino-6-(4-(2-(3,5-difluorophenyl)-2-hydroxyacetamido)-2-methylphenyl)-N-methylpyrazine-2-carboxamide] | 7.60 to 9.00 | 0.026 to 0.05 |
| Cc1cc(NC(=O)C(O)c2cc(F)cc(F)c2)ccc1-c1cnc(N)c(C(=O)NC2CC2)n1 (stereo not shown) [Example 138, 3-amino-N-cyclopropyl-6-(4-(2-(3,5-difluorophenyl)-2-hydroxyacetamido)-2-methylphenyl) pyrazine-2-carboxamide] | 7.60 to 9.00 | 0.026 to 0.05 |
| Cc1cc(NC(=O)C(O)c2cc(F)cc(F)c2)ccc1-c1cnc(N)c(C(=O)NC2CC2)n1 (stereo not shown) [Example 139, 3-amino-N-cyclopropyl-6-(4-(2-(3,5-difluorophenyl)-2-hydroxyacetamido)-2-methylphenyl) pyrazine-2-carboxamide] | 7.60 to 9.00 | 0.251 to 0.5 |
| CCNC(=O)c1nc(-c2ccc(NC(=O)C(O)c3cc(F)cc(F)c3)cc2CC)cnc1N (stereo not shown) [Example 153, 3-amino-6-(4-(2-(3,5-difluorophenyl)-2-hydroxyactamido)-2-ethylphenyl)-N-ethylpyrazine-2-carboxamide] | 7.60 to 9.00 | 0.026 to 0.05 |
| CCc1cc(NC(=O)C(O)c2cc(F)cc(F)c2)ccc1-c1cnc(N)c(C(=O)NC2CC2)n1 (stereo not shown) [Example 157, 3-amino-N-cyclopropyl-6-(4-(2-(3,5-difluorophenyl)-2-hydroxyacetamido)-2-ethylphenyl) pyrazine-2-carboxamide] | 6.60 to 7.00 | 0.101 to 0.25 |
| CCc1cc(NC(=O)C(O)c2cc(F)cc(F)c2)ccc1-c1cnc(N)c(C(=O)NC2COC2)n1 (stereo not shown) [Example 159, 3-amino-6-(4-(2-(3,5-difluorophenyl)-2-hydroxyacetamido)-2-ethylphenyl)-N-(oxetan-3-yl)pyrazine-2-carboxamide] | 7.30 to 7.59 | 0.101 to 0.25 |
| Nc1ncc(-c2ccc(NC(=O)C(O)c3cc(F)cc(F)c3)cc2Cl)nc1C(=O)NCC(F)(F)F (stereo not shown) [Example 164, 3-amino-6-(2-chloro-4-(2-(3,5-difluorophenyl)-2-hydroxyacetamido)phenyl)-N-(2,2,2-trifluoroethyl) pyrazine-2-carboxamide] | 5.70 to 6.00 | 0.251 to 0.5 |
| Nc1ncc(-c2ccc(NC(=O)C(O)c3cc(F)cc(F)c3)cc2Cl)nc1C(=O)NC1COC1 (stereo not shown) [Example 168, 3-amino-6-(2-chloro-4-(2-(3,5-difluorophenyl)-2-hydroxyacetamido)phenyl)-N-(oxetan-3-yl)pyrazine-2-carboxamide] | 7.00 to 7.29 | 0.101 to 0.25 |
| Nc1ncc(-c2ccc(NC(=O)C(O)c3cc(F)cc(F)c3)cc2Cl)nc1C(=O)NC1COC1 (stereo not shown) [Example 169, 3-amino-6-(2-chloro-4-(2-(3,5-difluorophenyl)-2-hydroxyacetamido)phenyl)-N-(oxetan-3-yl)pyrazine-2-carboxamide] | 7.60 to 9.00 | 0.001 to 0.025 |
| CNc1ccc(-c2ccc(NC(=O)C(O)c3cc(F)cc(F)c3)cc2C)cn1 (stereo not shown) [Example 172, 2-(3,5-difluorophenyl)-2-hydroxy-N-(3-methyl-4-(6-(methylamino)pyridin-3-yl)phenyl) acetamide] | 7.00 to 7.29 | 1 to 2 |

Next, values leading:

| pIC50 [1] | IC50 [2] [µM] | SMILES |
| --- | --- | --- |
| 6.30 to 6.60 | 0.501 to 1 | Cc1c(-c2cnc(N)c(C(=O)NC3COC3)c2)ccc(NC(=O)C(O)c2cc(F)cc(F)c2)c1F (stereo not shown) [Example 122, 2-amino-5-(4-(2-(3,5-difluorophenyl)-2-hydroxyacetamido)-3-fluoro-2-methylphenyl)-N-(oxetan-3-yl)nicotinamide] |
| 7.60 to 9.00 | 0.001 to 0.025 | CC(C)NC(=O)c1cc(-c2ccc(NC(=O)C(O)c3cc(F)cc(F)c3)c(F)c2Cl)cnc1N (stereo not shown) [Example 123, 2-amino-5-(2-chloro-4-(2-(3,5-difluorophenyl)-2-hydroxyacetamido)-3-fluorophenyl)-N-isopropylnicotinamide] |
| 7.00 to 7.29 | > 5 | Cc1cc(NC(=O)C(O)c2cccc(C(F)(F)F)c2)ncc1-c1cnc(N)c(C(=O)NC(C)C)c1 (stereo not shown) [Example 128, 6-amino-6′-(2-hydroxy-2-(3-(trifluoromethyl)phenyl)acetamido)-N-isopropyl-4′-methyl-[3,3′-bipyridine]-5-carboxamide] |
| 7.60 to 9.00 | 0.026 to 0.05 | Cc1cc(NC(=O)C(O)c2cc(F)cc(F)c2)ccc1-c1cnc(N)c(C(=O)NC(C)C)n1 (stereo not shown) [Example 134, 3-amino-6-(4-(2-(3,5-difluorophenyl)-2-hydroxyacetamido)-2-methylphenyl)-N-isopropylpyrazine-2-carboxamide] |
| 7.30 to 7.59 | 0.101 to 0.25 | Cc1cc(NC(=O)C(O)c2cc(F)cc(F)c2)ccc1-c1cnc(N)c(C(=O)NCCN(C)C)n1 (stereo not shown) [Example 146, 3-amino-6-(4-(2-(3,5-difluorophenyl)-2-hydroxyacetamido)-2-methylphenyl)-N-(2-(dimethylamino)ethyl)pyrazine-2-carboxamide] |
| 7.60 to 9.00 | 0.026 to 0.05 | CCc1cc(NC(=O)C(O)c2cc(F)cc(F)c2)ccc1-c1cnc(N)c(C(=O)NC(C)C)n1 (stereo not shown) [Example 151, 3-amino-6-(4-(2-(3,5-difluorophenyl)-2-hydroxyacetamido)-2-ethylphenyl)-N-isopropylpyrazine-2-carboxamide] |
| 6.60 to 7.00 | 0.101 to 0.25 | CCc1cc(NC(=O)C(O)c2cc(F)cc(F)c2)ccc1-c1cnc(N)c(C(=O)NC(C)C)n1 (stereo not shown) [Example 152, 3-amino-6-(4-(2-(3,5-difluorophenyl)-2-hydroxyacetamido)-2-ethylphenyl)-N-isopropylpyrazine-2-carboxamide] |
| 7.60 to 9.00 | 0.001 to 0.025 | CCc1cc(NC(=O)C(O)c2cc(F)cc(F)c2)ccc1-c1cnc(N)c(C(=O)NC2CC2)n1 (stereo not shown) [Example 156, 3-amino-N-cyclopropyl-6-(4-(2-(3,5-difluorophenyl)-2-hydroxyacetamido)-2-ethylphenyl)pyrazine-2-carboxamide] |
| 7.60 to 9.00 | 0.001 to 0.025 | CCc1cc(NC(=O)C(O)c2cc(F)cc(F)c2)ccc1-c1cnc(N)c(C(=O)NC2COC2)n1 (stereo not shown) [Example 158, 3-amino-6-(4-(3-(3,5-difluorophenyl)-2-hydroxyacetamido)-2-ethylphenyl)-N-(oxetan-3-yl)pyrazine-2-carboxamide] |
| 7.60 to 9.00 | 0.001 to 0.025 | CCc1cc(NC(=O)C(O)c2cccc(C)c2)ccc1-c1cnc(N)c(C(=O)NC(C)C)n1 (stereo not shown) [Example 160, 3-amino-6-(2-ethyl-4-(2-hydroxy-2-(m-tolyl)acetamido)phenyl)-N-isopropylpyrazine-2-carboxamide] |
| 7.00 to 7.29 | 0.251 to 0.5 | CCc1cc(NC(=O)C(O)c2cccc(C)c2)ccc1-c1cnc(N)c(C(=O)NC(C)C)n1 (stereo not shown) [Example 161, 3-amino-6-(2-ethyl-4-(2-hydroxy-2-(m-tolyl)acetamido)phenyl)-N-isopropylpyrazine-2-carboxamide] |
| 7.00 to 7.29 | 0.026 to 0.05 | Nc1ncc(-c2ccc(NC(=O)C(O)c3cc(F)cc(F)c3)cc2Cl)nc1C(=O)NCC(F)(F)F (stereo not shown) [Example 165, 3-amino-6-(2-chloro-4-(2-(3,5-difluorophenyl)-2-hydroxyacetamido)phenyl)-N-(2,2,2-trifluoroethyl) pyrazine-2-carboxamide] |
| 7.00 to 7.29 | 2 to 3 | Cc1cc(NC(=O)C(O)c2cc(F)cc(F)c2)ccc1-c1ccc(N)nc1 (stereo not shown) [Example 170, N-(4-(6-aminopyridin-3-yl)-3-methylphenyl)-2-(3,5-difluorophenyl)-2-hydroxyacetamide] |
| 6.30 to 6.60 | > 5 | Cc1cc(NC(=O)C(O)c2cc(F)cc(F)c2)ccc1-c1ccc(N)nc1 (stereo not shown) [Example 171, N-(4-(6-aminopyridin-3-yl)-3-methylphenyl)-2-(3,5-difluorophenyl)-2-hydroxyacetamide] |
